Assay results from paper PMC7709957 (2020).

Test system: F. ulcerans ZTP riboswitch (pfl RNA, 75-nt aptamer domain, crystal construct) (RNA, riboswitch) UAUCAGUUAUAUGACUGACGGAACGUGGAAUUAACCACAUGAAGUAUAACGAUGACAAUGCCGACCGUCUGGGCG
Test: ITC
Conditions: 150 mM KCl, 10 mM MgCl2, 50 mM Hepes-KOH pH 7.4, 37 °C

Compound	Kd [µM]	Kd (3% DMSO) [µM]
NC(=O)c1nc[nH]c1N	41 ± 4	
NC(=O)c1ncn(-c2ccccn2)c1N	5.6 ± 3.2	
NC(=O)c1ncn(-c2cccnc2)c1N		0.60 ± 0.06
NC(=O)c1ncn([C@@H]2O[C@H](CO)[C@@H](O)[C@H]2O)c1N	2.3 ± 0.6	
NC(=O)c1ncn([C@@H]2O[C@H](COP(=O)(O)O)[C@@H](O)[C@H]2O)c1N	0.32 ± 0.13	
